# Measured values published in paper PMC9352624, “Going deeper into the toxicokinetics of synthetic cannabinoids: in vitro contribution of human carboxylesterases” (Archives of Toxicology, 2022).
# Like-named read-outs stand apart in the source and are kept apart here.
# How the values were obtained:
# hCES2 [1] = biological target: T1, hCES2 (Homo sapiens, UniProt O00748); test: Initial activity screening with recombinant hCES2; conditions: 100 µM substrate, 30 min, 37 °C, 0.2 µg/µL protein, LC–ITMS, mean n = 2
# T1 sequence (O00748 27-559): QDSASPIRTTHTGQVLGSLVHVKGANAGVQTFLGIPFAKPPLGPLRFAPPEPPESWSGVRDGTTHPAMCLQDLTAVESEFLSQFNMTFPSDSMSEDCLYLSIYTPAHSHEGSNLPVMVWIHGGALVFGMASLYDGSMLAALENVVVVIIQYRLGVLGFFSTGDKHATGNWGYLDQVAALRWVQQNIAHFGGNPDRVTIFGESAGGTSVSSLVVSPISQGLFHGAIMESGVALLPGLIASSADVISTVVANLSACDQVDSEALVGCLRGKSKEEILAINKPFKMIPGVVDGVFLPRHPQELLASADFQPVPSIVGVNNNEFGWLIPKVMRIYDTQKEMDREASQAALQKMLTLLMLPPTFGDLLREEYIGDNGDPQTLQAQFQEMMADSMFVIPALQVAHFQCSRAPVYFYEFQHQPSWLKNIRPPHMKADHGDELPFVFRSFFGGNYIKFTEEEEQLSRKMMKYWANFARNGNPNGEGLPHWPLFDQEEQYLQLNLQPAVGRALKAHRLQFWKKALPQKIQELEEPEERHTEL
# hCES1b [2] = biological target: T2, hCES1b (Homo sapiens, UniProt P23141); test: Initial activity screening with recombinant hCES1b; conditions: 100 µM substrate, 30 min, 37 °C, 0.2 µg/µL protein, LC–ITMS, mean n = 2
# T2 sequence (P23141 18-567): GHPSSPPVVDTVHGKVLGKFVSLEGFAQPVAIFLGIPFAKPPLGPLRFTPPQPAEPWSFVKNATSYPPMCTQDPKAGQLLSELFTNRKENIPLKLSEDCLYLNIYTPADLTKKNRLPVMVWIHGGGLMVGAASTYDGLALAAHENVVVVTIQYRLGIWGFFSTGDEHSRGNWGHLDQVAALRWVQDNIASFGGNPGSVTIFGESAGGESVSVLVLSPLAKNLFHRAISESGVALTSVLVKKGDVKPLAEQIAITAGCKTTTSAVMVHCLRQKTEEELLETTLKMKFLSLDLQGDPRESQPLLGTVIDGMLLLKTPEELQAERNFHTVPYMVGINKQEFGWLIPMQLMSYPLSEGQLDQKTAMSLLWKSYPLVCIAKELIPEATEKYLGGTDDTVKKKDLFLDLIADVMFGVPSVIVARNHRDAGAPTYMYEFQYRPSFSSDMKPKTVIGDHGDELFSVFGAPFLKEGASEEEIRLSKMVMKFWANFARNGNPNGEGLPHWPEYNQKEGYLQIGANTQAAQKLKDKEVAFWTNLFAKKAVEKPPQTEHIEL
# hCES1c [3] = biological target: T3, hCES1c (Homo sapiens, UniProt P23141); test: Initial activity screening with recombinant hCES1c; conditions: 100 µM substrate, 30 min, 37 °C, 0.2 µg/µL protein, LC–ITMS, mean n = 2
# T3 sequence (P23141 18-566 isoform P23141-3 limits assumed): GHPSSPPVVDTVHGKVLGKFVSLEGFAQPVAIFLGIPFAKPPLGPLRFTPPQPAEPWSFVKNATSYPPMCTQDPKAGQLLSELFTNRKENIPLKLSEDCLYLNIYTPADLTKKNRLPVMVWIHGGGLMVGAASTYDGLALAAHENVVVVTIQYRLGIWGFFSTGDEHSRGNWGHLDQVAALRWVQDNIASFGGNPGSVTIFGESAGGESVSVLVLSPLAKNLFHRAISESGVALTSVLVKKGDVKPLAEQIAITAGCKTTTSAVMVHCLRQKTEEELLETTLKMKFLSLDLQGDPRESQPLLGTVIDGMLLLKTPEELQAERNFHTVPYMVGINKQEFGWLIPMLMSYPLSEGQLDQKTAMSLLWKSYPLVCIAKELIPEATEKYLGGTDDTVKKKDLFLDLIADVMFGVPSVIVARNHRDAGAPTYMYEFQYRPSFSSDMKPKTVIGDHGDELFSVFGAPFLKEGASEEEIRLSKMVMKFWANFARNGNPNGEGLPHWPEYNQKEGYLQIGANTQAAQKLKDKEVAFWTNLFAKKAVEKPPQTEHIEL
# hCES2 [4] = biological target: T1, hCES2; test: Enzyme kinetic studies of ester hydrolysis with hCES2; conditions: for Vmax (relative), ester hydrolysis by hCES2: peak area ratio metabolite/internal standard
# hCES1b [5] = biological target: T2, hCES1b; test: Enzyme kinetic studies of ester hydrolysis with hCES1b; conditions: for Vmax (relative), ester hydrolysis by hCES1b: peak area ratio metabolite/internal standard
# hCES1c [6] = biological target: T3, hCES1c; test: Enzyme kinetic studies of ester hydrolysis with hCES1c; conditions: for Vmax (relative), ester hydrolysis by hCES1c: peak area ratio metabolite/internal standard
# [7] = Initial activity screening with pooled human liver microsomes; conditions: 100 µM substrate, 30 min, 37 °C, 2 µg/µL protein, LC–ITMS, mean n = 2
# [8] = Initial activity screening with pooled human liver S9 fraction; conditions: 100 µM substrate, 30 min, 37 °C, 2 µg/µL protein, LC–ITMS, mean n = 2
# hCES1b [9] = biological target: T2, hCES1b; parameters: purchased Corning (Amsterdam, The Netherlands); host or cells: baculovirus transfected insect cells; method as in Meyer et al. [2015]; conditions: identical incubation conditions and analyzing methods; ref Meyer et al. [2015]; read-out: Km, hCES1b, literature value; cited from earlier work
# hCES1c [10] = biological target: T3, hCES1c; parameters: purchased Corning (Amsterdam, The Netherlands); host or cells: baculovirus transfected insect cells; method as in Meyer et al. [2015]; conditions: identical incubation conditions and analyzing methods; ref Meyer et al. [2015]; read-out: Km, hCES1c, literature value; cited from earlier work
# hCES2 [11] = biological target: T1, hCES2; parameters: purchased Corning (Amsterdam, The Netherlands); host or cells: baculovirus transfected insect cells; method as in Meyer et al. [2015]; conditions: identical incubation conditions and analyzing methods; ref Meyer et al. [2015]; read-out: Km, hCES2, literature value; cited from earlier work
smiles,measurement,setting,value
"COc1ccc2c3c1O[C@H]1C(OC(C)=O)=CC[C@H]4[C@@H](C2)N(C)CC[C@]314 [Thebacon, reference compound]","Relative amount of hydrolysis metabolite formed, hCES2",hCES2 [1],19%
same,"Relative amount of hydrolysis metabolite formed, hCES1b",hCES1b [2],47%
same,"Relative amount of hydrolysis metabolite formed, hCES1c",hCES1c [3],10%
same,"Clint (relative in vitro intrinsic clearance), hCES2",hCES2 [4]; Clint = Vmax/Km,0.89 AU/min/mg/µM
same,Km,"hCES2 [4]; read-out: Corrected Km, hCES2, current Km adjusted by 2.2-fold enzyme load activity factor",247 µM
same,Km,"hCES2 [4]; read-out: Km, ester hydrolysis by hCES2, ± S.D., Michaelis–Menten fit, conditions of Table 1",543 ± 87 µM
same,"Vmax (relative), ester hydrolysis by hCES2",hCES2 [4]; ± S.D.,482 ± 31 AU/min/mg
same,"Vmax (relative), ester hydrolysis by hCES2","hCES2 [4]; ± S.D., listed as thebacon",482 AU/min/mg
same,"Clint (relative in vitro intrinsic clearance), hCES1b",hCES1b [5]; Clint = Vmax/Km,0.60 AU/min/mg/µM
same,Km,"hCES1b [5]; read-out: Corrected Km, hCES1b, current Km adjusted by 2.4-fold enzyme load activity factor",273 µM
same,Km,"hCES1b [5]; read-out: Km, ester hydrolysis by hCES1b, ± S.D., Michaelis–Menten fit, conditions of Table 1",655 ± 210 µM
same,"Vmax (relative), ester hydrolysis by hCES1b",hCES1b [5]; ± S.D.,394 ± 40 AU/min/mg
same,"Vmax (relative), ester hydrolysis by hCES1b","hCES1b [5]; ± S.D., listed as thebacon",394 AU/min/mg
same,"Clint (relative in vitro intrinsic clearance), hCES1c",hCES1c [6]; Clint = Vmax/Km,0.54 AU/min/mg/µM
same,Km,"hCES1c [6]; read-out: Corrected Km, hCES1c, current Km adjusted by 5.3-fold enzyme load activity factor",289 µM
same,Km,"hCES1c [6]; read-out: Km, ester hydrolysis by hCES1c, ± S.D., Michaelis–Menten fit, conditions of Table 1",1530 ± 470 µM
same,"Vmax (relative), ester hydrolysis by hCES1c",hCES1c [6]; ± S.D.,831 ± 140 AU/min/mg
same,"Vmax (relative), ester hydrolysis by hCES1c","hCES1c [6]; ± S.D., listed as thebacon",831 AU/min/mg
same,"Relative amount of hydrolysis metabolite formed, pHLM",[7],about 80%
same,"Relative amount of hydrolysis metabolite formed, pHLS9",[8],about 80%
same,Km,hCES1b [9],272 µM
same,Km,hCES1c [10],264 µM
same,Km,hCES2 [11],166 µM
